Here are results for six compounds from US9695155B2, “Herbicidal substituted pyrimidinyloxy benzene compounds” (E. I. DU PONT DE NEMOURS AND COMPANY, priority 2013, dated 2017).

One test has as its system Italian ryegrass. The test can be described thus: Test A postemergence. The test is classed as in vivo, Lolium multiflorum. Summed up:
(§1)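 Compounds in non-phytotoxic solvent with surfactant applied as soil spray preemergence, or postemergence to plants 2-10 cm at one- to two-leaf stage, in loam/sand. After approximately 10 days in greenhouse, injury rated visually versus untreated controls, 0 (no effect) to 100 (complete control).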

In test [1] the test system is kochia. The test can be described thus: Test A postemergence. The test is classed as in vivo, Kochia scoparia. Summed up: as §1
For test [2], the system named is kochia. The test can be described thus: Test A preemergence. Type of test: in vivo, Kochia scoparia. In outline:
as §1

In the next test the test system is blackgrass. The test can be described thus: Test D postemergence. Type of test: in vivo, Alopecurus myosuroides. As to conditions: for pest or weed control at 62 g/ha / pest or weed control at 16 g/ha / pest or weed control at 31 g/ha / pest or weed control at 125 g/ha / pest or weed control at 250 g/ha: Alopecurus myosuroides, post-emergence, read-out: Plant response rating, Blackgrass. The text has this: Seeds of plant species selected from bluegrass (annual bluegrass, Poa annua), blackgrass (Alopecurus myosuroides), canarygrass (littleseed canarygrass, Phalaris minor), chickweed (common chickweed, Stellaria media), galium (catchweed bedstraw, Galium aparine), bromegrass, downy (downy bromegrass, Bromus tectorum), field poppy (Papaver rhoeas), field violet (Viola arvensis), green foxtail (Setaria viridis), deadnettle (henbit deadnettle, Lamium amplexicaule), Italian ryegrass (Lolium multiflorum), kochia (Kochia scoparia), lambsquarters (Chenopodium album), oilseed rape (Brassica napus), pigweed (Amaranthus retroflexus), chamomile (scentless chamomile, Matricaria inodora), Russian thistle (Salsola kali), speedwell (bird's-eye speedwell, Veronica persica), spring barley (Hordeum vulgare), spring wheat (Triticum aestivum), wild buckwheat (Polygonum convolvulus), wild mustard (Sinapis arvensis), wild oat (Avena fatua), wild radish (Raphanus raphanistrum), windgrass (Apera spica-venti), winter barley (Hordeum vulgare), and winter wheat (Triticum aestivum) were planted into a silt loam soil and treated preemergence with test chemicals formulated in a non-phytotoxic solvent mixture which included a surfactant.
At the same time, these species were planted in pots containing Redi-Earth® planting medium (Scotts Company, 14111 Scottslawn Road, Marysville, Ohio 43041) comprising spaghnum peat moss, vermiculite, wetting agent and starter nutrients and treated with postemergence applications of the test chemicals formulated in the same manner. Plants ranged in height from 2 to 18 cm (1- to 4-leaf stage). Treated plants and controls were maintained in a controlled growth environment for 7 to 21 days after which time all species were compared to controls and visually evaluated. Plant response ratings, summarized in Table D, are based on a scale of 0 to 100 where 0 is no effect and 100 is complete control. A dash (-) response means no test result.

The next test deals with surinam grass. The test can be described thus: Test E preemergence. The test is classed as in vivo, Brachiaria decumbens. The conditions noted are these: for Surinam Grass plant response rating: scale 0 to 100 (0 no effect, 100 complete control); for Plant response rating, Surinam Grass: scale 0 to 100, 0 no effect, 100 complete control. In outline:
(§2)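 Response was scored visually on a 0-100 scale (100 = complete control) versus controls after 14 to 21 days in the greenhouse. Test chemicals, formulated with surfactant in a non-phytotoxic solvent mixture, had been applied preemergence to seeds in silt loam soil or postemergence to 1- to 4-leaf plants in potting medium.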

A further test has as its system waterhemp. The test can be described thus: Test E preemergence. As to conditions: for Waterhemp plant response rating: scale 0 to 100 (0 no effect, 100 complete control); for Plant response rating, Waterhemp: scale 0 to 100, 0 no effect, 100 complete control. Type of test: in vivo, Amaranthus rudis. Summed up:
as §2

A further test relates to giant foxtail. The test can be described thus: Test E preemergence. The conditions noted are these: for Foxtail, Giant plant response rating: scale 0 to 100 (0 no effect, 100 complete control); for Plant response rating, Foxtail, Giant: scale 0 to 100, 0 no effect, 100 complete control. Type of test: in vivo, Setaria faberii. Summed up: as §2
The test system of another test is hairy beggarticks. The test can be described thus: Test E preemergence. The test is classed as in vivo, Bidens pilosa. As to conditions: for Beggarticks plant response rating: scale 0 to 100 (0 no effect, 100 complete control); for Plant response rating, Beggarticks: scale 0 to 100, 0 no effect, 100 complete control. Summed up: as §2
The next test has as its system field bindweed. The test can be described thus: Test E preemergence. The test is classed as in vivo, Convolvulus arvensis. As to conditions: for Field Bindweed plant response rating: scale 0 to 100 (0 no effect, 100 complete control); for Plant response rating, Field Bindweed: scale 0 to 100, 0 no effect, 100 complete control. Summed up: as §2
The next test deals with nightshade. The test can be described thus: Test E preemergence. The test is classed as in vivo, Solanum ptycanthum. As to conditions: for Nightshade plant response rating: scale 0 to 100 (0 no effect, 100 complete control); for Plant response rating, Nightshade: scale 0 to 100, 0 no effect, 100 complete control. Summed up:
as §2

The mark [3] stands for this setting: 125 g ai/ha, 0 to 100 scale, 0 no effect, 100 complete control.
Where [4] appears, read: 500 g ai/ha, 0 to 100 scale where 0 is no effect and 100 is complete control.
Setting [5] is: Postemergence, 62 g ai/ha, scale 0 to 100 (0 no effect, 100 complete control).
The mark [6] stands for this setting: Postemergence, 31 g ai/ha, scale 0 to 100 (0 no effect, 100 complete control).
The mark [7] stands for this setting: Postemergence, 125 g ai/ha, scale 0 to 100 (0 no effect, 100 complete control).
[8] abbreviates: Postemergence, 250 g ai/ha, scale 0 to 100 (0 no effect, 100 complete control).
[9] abbreviates: Postemergence, 16 g ai/ha, scale 0 to 100 (0 no effect, 100 complete control).

SMILES strings stand for the structures.

Consider `N#Cc1cccc(Oc2ncc(Cl)cn2)c1-n1cc(-n2ccc(C(F)(F)F)n2)cn1` [Compound 284], for which the “Plant response rating, Ryegrass, Italian” value in the test with Italian ryegrass (setting [3]) is on record as 20; with Italian ryegrass (setting [4]), 60. Also, the “Plant response rating, Kochia” value with kochia [1] (setting [3]) was found to be 60; in the test with kochia [1] (setting [4]), 100. Moreover, the “Kochia plant response rating (0 to 100 scale)” value with kochia [2] (125 g ai/ha) was 80. Further, the “Kochia plant response rating” value in the test on kochia [2] (setting [4]) turned out to be 100. Besides, the “Plant response rating, Blackgrass” value is listed as 25 with blackgrass (setting [5]), 20 with blackgrass (setting [6]), 30 with blackgrass (setting [7]) and 35 with blackgrass (setting [8]).

Regarding `Fc1cccc(Oc2ncc(Cl)cn2)c1-n1cc(Br)cn1` [Compound 178, 2-[2-(4-bromo-1H-pyrazol-1-yl)-3-fluorophenoxy]-5-chloropyrimidine], the pest or weed control at 62 g/ha in the test with blackgrass (setting [5]) was 25%. In the test with blackgrass (setting [9]), the pest or weed control at 16 g/ha was 5%. In the test on blackgrass (setting [6]), the pest or weed control at 31 g/ha was found to be 10%.

`Clc1cnc(Oc2ccccc2-n2cc(Cl)cn2)nc1` [Compound 3]: the “Plant response rating, Blackgrass” value in the test with blackgrass (setting [5]) was determined as 0; with blackgrass (setting [6]) it was 0; in the test on blackgrass (setting [7]), 0; in the test with blackgrass (setting [8]) it was 10; with blackgrass (postemergence, 16 g ai/ha, scale 0 to 100, 0 no effect, 100 complete control), 70.

`N#Cc1cccc(Oc2ncc(Br)cn2)c1-n1cc(C(F)(F)F)cn1` [Compound 59, 3-[(5-bromo-2-pyrimidinyl)oxy]-2-[4-(trifluoromethyl)-1H-pyrazol-1-yl]benzonitrile]: the “Surinam Grass plant response rating” value amounted to 0 in the test with surinam grass (16 g ai/ha), 0 in the test with surinam grass (31 g ai/ha) and 5 in the test on surinam grass (62 g ai/ha). In addition, the “Plant response rating, Surinam Grass” value in the test on surinam grass (125 g ai/ha) turned out to be 20; in the test with surinam grass (250 g ai/ha), 65. Further, the “Waterhemp plant response rating” value in the test with waterhemp (16 g ai/ha), with waterhemp (31 g ai/ha) and with waterhemp (62 g ai/ha) was 100 each time. Also, the “Plant response rating, Waterhemp” value with waterhemp (125 g ai/ha) and in the test on waterhemp (250 g ai/ha) was 100 in each case. Further, the figures for the “Foxtail, Giant plant response rating” value in the test on giant foxtail (16 g ai/ha), in the test with giant foxtail (31 g ai/ha) and in the test on giant foxtail (62 g ai/ha) were 5, 10 and 85, respectively. Also, the “Plant response rating, Foxtail, Giant” value in the test with giant foxtail (125 g ai/ha) and in the test on giant foxtail (250 g ai/ha) was 100 throughout. Moreover, the “Beggarticks plant response rating” value is 0 in the test with hairy beggarticks (16 g ai/ha, preemergence) and 0 in the test with hairy beggarticks (31 g ai/ha, preemergence). Further, the “Plant response rating, Beggarticks” value in the test on hairy beggarticks (Preemergence, 62 g ai/ha) is 0; in the test with hairy beggarticks (preemergence, 125 g ai/ha), 0; in the test with hairy beggarticks (preemergence, 250 g ai/ha), 25. Moreover, the “Field Bindweed plant response rating” value in the test with field bindweed (16 g ai/ha) is given as 0; in the test on field bindweed (31 g ai/ha), 5; with field bindweed (62 g ai/ha) it was 60. Moreover, the “Plant response rating, Field Bindweed” value in the test on field bindweed (125 g ai/ha) worked out at 60; in the test with field bindweed (250 g ai/ha), 100. For the same compound, the results for the “Nightshade plant response rating” value in the test on nightshade (16 g ai/ha), in the test with nightshade (31 g ai/ha) and in the test on nightshade (62 g ai/ha) were 0, 50 and 90, respectively. For the same compound, the “Plant response rating, Nightshade” value in the test with nightshade (125 g ai/ha) and with nightshade (250 g ai/ha) was 100 each time. Besides, the pest or weed control at 62 g/ha in the test with blackgrass (setting [5]) was determined as 30%. The pest or weed control at 31 g/ha with blackgrass (setting [6]) was 25%. The pest or weed control at 125 g/ha in the test with blackgrass (setting [7]) was 40%. Besides, the pest or weed control at 250 g/ha with blackgrass (setting [8]) is 70%.

`FC(F)(F)c1cn(-c2ccccc2Oc2ncc(Cl)cn2)nn1` [Compound 166, 5-chloro-2-[2-[4-(trifluoromethyl)-1H-1,2,3-triazol-1-yl]phenoxy]pyrimidine]: the pest or weed control at 62 g/ha in the test on blackgrass (setting [5]) is 40%. Also, in the test with blackgrass (setting [9]), the pest or weed control at 16 g/ha worked out at 15%. Also, the pest or weed control at 31 g/ha with blackgrass (setting [6]) amounted to 20%. In addition, the pest or weed control at 125 g/ha with blackgrass (setting [7]) stood at 65%.

As to `N#Cc1cccc(Oc2ncc(Cl)cn2)c1-n1cc(C(F)(F)F)cn1` [Compound 58, 3-[(5-chloro-2-pyrimidinyl)oxy]-2-[4-(trifluoromethyl)-1H-pyrazol-1-yl]benzonitrile], the “Surinam Grass plant response rating” value is 0 in the test on surinam grass (16 g ai/ha), 0 in the test on surinam grass (31 g ai/ha) and 25 with surinam grass (62 g ai/ha). The “Plant response rating, Surinam Grass” value in the test with surinam grass (125 g ai/ha) turned out to be 65; with surinam grass (250 g ai/ha) it was 90. Besides, the “Waterhemp plant response rating” value in the test with waterhemp (16 g ai/ha) is reported as 98; in the test with waterhemp (31 g ai/ha), 100; with waterhemp (62 g ai/ha), 100. The “Plant response rating, Waterhemp” value in the test with waterhemp (125 g ai/ha) and in the test on waterhemp (250 g ai/ha) was 100 each time. Further, the “Foxtail, Giant plant response rating” value is reported as 75 in the test on giant foxtail (16 g ai/ha), 100 in the test with giant foxtail (31 g ai/ha) and 100 in the test on giant foxtail (62 g ai/ha). Also, the “Plant response rating, Foxtail, Giant” value in the test with giant foxtail (125 g ai/ha) and in the test on giant foxtail (250 g ai/ha) was 100 throughout. Moreover, the “Beggarticks plant response rating” value in the test on hairy beggarticks (16 g ai/ha, preemergence) was found to be 0; in the test on hairy beggarticks (31 g ai/ha, preemergence), 0. Moreover, the “Plant response rating, Beggarticks” value is reported as 0 in the test with hairy beggarticks (Preemergence, 62 g ai/ha); 15 in the test with hairy beggarticks (preemergence, 125 g ai/ha); 100 in the test with hairy beggarticks (preemergence, 250 g ai/ha). Also, the “Field Bindweed plant response rating” value with field bindweed (16 g ai/ha) was found to be 0; in the test on field bindweed (31 g ai/ha) it was 20; with field bindweed (62 g ai/ha) it was 70. Also, the “Plant response rating, Field Bindweed” value in the test with field bindweed (125 g ai/ha) worked out at 98; in the test on field bindweed (250 g ai/ha), 100. Moreover, the “Nightshade plant response rating” value in the test on nightshade (16 g ai/ha) is 90; in the test with nightshade (31 g ai/ha), 98; in the test on nightshade (62 g ai/ha) it was 100. Besides, the “Plant response rating, Nightshade” value with nightshade (125 g ai/ha) and with nightshade (250 g ai/ha) was 100 throughout. Besides, the pest or weed control at 62 g/ha with blackgrass (setting [5]) was determined as 45%. In the test with blackgrass (setting [6]), the pest or weed control at 31 g/ha was found to be 20%. For the same compound, the pest or weed control at 125 g/ha with blackgrass (setting [7]) is 70%. For the same compound, the pest or weed control at 250 g/ha in the test with blackgrass (setting [8]) is 90%.
